Where two headings read alike, the source gives them in different places.
Key:
Assay type in all cases: cell-based
[1] = tested on: TNF-α release stimulated by diprovocim-1 (3); assay: antagonist test: inhibition of the activity of diprovocim-1 (3) on co-administration; details: co-administered at 5 μM
[2] = tested on: differentiated human THP-1 cells; assay: stimulated release of TNF-α from differentiated human THP-1 cells (ELISA, dose-response)
Summary of the method: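 Human THP-1 cells were PMA-differentiated toward macrophages, and stimulated TNF-α release was measured by ELISA. EC50 values were taken from dose-response curves.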

[3] = tested on: mouse macrophages; assay: stimulated release of TNF-α from mouse macrophages; details: for EC50: Macrophage
Summary of the method: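 EC50 derived from dose-response curves for stimulated TNF-α release from mouse macrophages.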

[4] = Homo sapiens, THP-1, running text, read-out: EC50, stimulated release of TNF-α from differentiated human THP-1 cells
[5] = Mus musculus, read-out: EC50, stimulated release of TNF-α from mouse macrophages
[6] = Homo sapiens, THP-1, table of 133-139 (two lipid side chains), human THP-1 cells, read-out: EC50 (nM) (THP-1)
[7] = table of 133-139 (two lipid side chains), mouse macrophages, read-out: EC50 (nM) (mouse)
[8] = Homo sapiens, THP-1, table of 140-146 (four lipid side chains), human THP-1 cells, read-out: EC50 (nM) (THP-1)
[9] = table of 140-146 (four lipid side chains), mouse macrophages, read-out: EC50 (nM) (mouse)
[10] = Homo sapiens, THP-1, table of functionalized derivatives 147-151, human THP-1 cells, read-out: EC50 (nM) (THP-1)
[11] = table of functionalized derivatives 147-151, mouse macrophages, read-out: EC50 (nM) (mouse)

With `O=C(NCCc1ccccc1)[C@@H]1CN(C(=O)c2ccc(C(=O)N3C[C@@H](C(=O)NCCc4ccccc4)[C@H](C(=O)NCCc4ccccc4)C3)cc2)C[C@H]1C(=O)NCCc1ccccc1` [Compound 8, trans,trans-1,1′-Terephthaloylbis-(N^3, N^4-diphenethylpyrrolidine-3,4-dicarboxamide)] the “antagonist activity, inhibiting the activity of diprovocim-1 (3)” value [1] was “incapable of acting as an antagonist”, the EC50 [2, 4] was greater than 5000 nM and the “activity in stimulating TNF-α release from human THP-1 cells (in words)” value ([2]; tested up to 5 μM where stated) was “inactive”. It also gave an EC50 [3, 5] greater than 5000 nM.
With `CCCCCCCCCCCCNC(=O)[C@@H]1CN(C(=O)c2ccc(C(=O)N3C[C@@H](C(=O)N[C@H]4C[C@@H]4c4ccccc4)[C@H](C(=O)N[C@H]4C[C@@H]4c4ccccc4)C3)cc2)C[C@H]1C(=O)NCCCCCCCCCCCC` [Compound 135, (3S,4S)-1-(4-((3S,4S)-3,4-Bis(((1S,2R)-2-phenylcyclopropyl)carbamoyl)pyrrolidine-1-carbonyl)benzoyl)-N^3,N^4-didodecylpyrrolidine-3,4-dicarboxamide] the EC50 [2, 6] was 1 nM and the EC50 [3, 7] was 1000 nM.
In the case of `CCCCCCCCCCNC(=O)[C@@H]1CN(C(=O)c2ccc(C(=O)N3C[C@@H](C(=O)N[C@H]4C[C@@H]4c4ccccc4)[C@H](C(=O)N[C@H]4C[C@@H]4c4ccccc4)C3)cc2)C[C@H]1C(=O)NCCCCCCCCCC` [Compound 136, (3S,4S)-1-(4-((3S,4S)-3,4-Bis(((1S,2R)-2-phenylcyclopropyl)carbamoyl)pyrrolidine-1-carbonyl)benzoyl)-N^3,N^4-didecylpyrrolidine-3,4-dicarboxamide], the EC50 [2, 6] is reported as 0.28 nM and the EC50 [3, 7] is reported as 60 nM.
With `CCCCCCCCNC(=O)[C@@H]1CN(C(=O)c2ccc(C(=O)N3C[C@@H](C(=O)N[C@H]4C[C@@H]4c4ccccc4)[C@H](C(=O)N[C@H]4C[C@@H]4c4ccccc4)C3)cc2)C[C@H]1C(=O)NCCCCCCCC` [Compound 137, (3S,4S)-1-(4-((3S,4S)-3,4-Bis(((1S,2R)-2-phenylcyclopropyl)carbamoyl)pyrrolidine-1-carbonyl)benzoyl)-N^3,N^4-dioctylpyrrolidine-3,4-dicarboxamide] the EC50 [2, 6] was 0.17 nM and the EC50 [3, 7] was 10 nM.
With `CCCCCCNC(=O)[C@@H]1CN(C(=O)c2ccc(C(=O)N3C[C@@H](C(=O)N[C@H]4C[C@@H]4c4ccccc4)[C@H](C(=O)N[C@H]4C[C@@H]4c4ccccc4)C3)cc2)C[C@H]1C(=O)NCCCCCC` [Compound 138, (3S,4S)-1-(4-((3S,4S)-3,4-Bis(((1S,2R)-2-phenylcyclopropyl)carbamoyl)-pyrrolidine-1-carbonyl)benzoyl)-N^3,N^4-dihexylpyrrolidine-3,4-dicarboxamide] the EC50 [2, 4] was 0.18 nM, the EC50 [2, 6] was 0.18 nM and the “fold less active/potent than diprovocim-1 (3)” value ([2]; human THP-1 cells) was 2 fold. For the same compound, the “potency differential human THP-1 cells versus mouse macrophages” value ([2]; ratio of mouse to human potency) was 20 fold, the EC50 [3, 7] was 4 nM and the EC50 [3, 5] was 4 nM. The “fold less potent/effective than diprovocim-1” value ([3]; mouse macrophages) was 4 fold.
For `CCCCNC(=O)[C@@H]1CN(C(=O)c2ccc(C(=O)N3C[C@@H](C(=O)N[C@H]4C[C@@H]4c4ccccc4)[C@H](C(=O)N[C@H]4C[C@@H]4c4ccccc4)C3)cc2)C[C@H]1C(=O)NCCCC` [Compound 139, (3S,4S)-1-(4-((3S,4S)-3,4-Bis(((1S,2R)-2-phenylcyclopropyl)carbamoyl)pyrrolidine-1-carbonyl)benzoyl)-N^3,N^4-dibutylpyrrolidine-3,4-dicarboxamide], the EC50 [2, 6] was 50 nM and the EC50 [3, 7] was 360 nM.
With `CCCCCCCCCCCCCCCCNC(=O)[C@@H]1CN(C(=O)c2ccc(C(=O)N3C[C@@H](C(=O)NCCCCCCCCCCCCCCCC)[C@H](C(=O)NCCCCCCCCCCCCCCCC)C3)cc2)C[C@H]1C(=O)NCCCCCCCCCCCCCCCC` [Compound 140, (3S,3′S,4S,4′S)-1,1′-Terephthaloylbis(N^3,N^4-dihexadecylpyrrolidine-3,4-dicarboxamide)] the EC50 [2, 8] was greater than 5000 nM and the EC50 [3, 9] was greater than 5000 nM.
Compound `CCCCCCCCCCCCCCNC(=O)[C@@H]1CN(C(=O)c2ccc(C(=O)N3C[C@@H](C(=O)NCCCCCCCCCCCCCC)[C@H](C(=O)NCCCCCCCCCCCCCC)C3)cc2)C[C@H]1C(=O)NCCCCCCCCCCCCCC` [Compound 141, (3S,3′S,4S,4′S)-1,1′-Terephthaloylbis(N^3,N^4-ditetradecylpyrrolidine-3,4-dicarboxamide)] has an EC50 [2, 8] greater than 5000 nM and an EC50 [3, 9] greater than 5000 nM.
With `CCCCCCCCCCCCNC(=O)[C@@H]1CN(C(=O)c2ccc(C(=O)N3C[C@@H](C(=O)NCCCCCCCCCCCC)[C@H](C(=O)NCCCCCCCCCCCC)C3)cc2)C[C@H]1C(=O)NCCCCCCCCCCCC` [Compound 142, (3S,3′S,4S,4′S)-1,1′-Terephthaloylbis(N^3,N^4-didodecylpyrrolidine-3,4-dicarboxamide)] the EC50 [2, 8] was greater than 5000 nM and the EC50 [3, 9] was greater than 5000 nM.
Compound `CCCCCCCCCCNC(=O)[C@@H]1CN(C(=O)c2ccc(C(=O)N3C[C@@H](C(=O)NCCCCCCCCCC)[C@H](C(=O)NCCCCCCCCCC)C3)cc2)C[C@H]1C(=O)NCCCCCCCCCC` [Compound 143, (3S,3′S,4S,4′S)-1,1′-Terephthaloylbis(N^3,N^4-didecylpyrrolidine-3,4-dicarboxamide)] has an EC50 [2, 8] greater than 5000 nM and an EC50 [3, 9] greater than 5000 nM.
With `CCCCCCCCNC(=O)[C@@H]1CN(C(=O)c2ccc(C(=O)N3C[C@@H](C(=O)NCCCCCCCC)[C@H](C(=O)NCCCCCCCC)C3)cc2)C[C@H]1C(=O)NCCCCCCCC` [Compound 144, (3S,3′S,4S,4′S)-1,1′-Terephthaloylbis(N^3,N^4-dioctylpyrrolidine-3,4-dicarboxamide)] the EC50 [2, 8] was greater than 5000 nM and the EC50 [3, 9] was greater than 5000 nM.
In the case of `CCCCCCNC(=O)[C@@H]1CN(C(=O)c2ccc(C(=O)N3C[C@@H](C(=O)NCCCCCC)[C@H](C(=O)NCCCCCC)C3)cc2)C[C@H]1C(=O)NCCCCCC` [Compound 145, (3S,3′S,4S,4′S)-1,1′-Terephthaloylbis(N^3,N^4-dihexylpyrrolidine-3,4-dicarboxamide)], the EC50 [2, 8] is reported as greater than 5000 nM and the EC50 [3, 9] is reported as greater than 5000 nM.
For `CCCCNC(=O)[C@@H]1CN(C(=O)c2ccc(C(=O)N3C[C@@H](C(=O)NCCCC)[C@H](C(=O)NCCCC)C3)cc2)C[C@H]1C(=O)NCCCC` [Compound 146, (3S,3′S,4S,4′S)-1,1′-Terephthaloylbis(N^3,N^4-dibutylpyrrolidine-3,4-dicarboxamide)], the EC50 [2, 8] was greater than 5000 nM and the EC50 [3, 9] was greater than 5000 nM.
In the case of `CC(C)(C)OC(=O)COc1cc(C(=O)N2C[C@@H](C(=O)N[C@H]3C[C@@H]3c3ccccc3)[C@H](C(=O)N[C@H]3C[C@@H]3c3ccccc3)C2)ccc1C(=O)N1C[C@@H](C(=O)N[C@H]2CC2c2ccccc2)[C@H](C(=O)N[C@H]2C[C@@H]2c2ccccc2)C1` (stereo partly drawn) [Compound 147, tert-Butyl 2-(2,5-Bis((3S,4S)-3,4-bis(((1S,2R)-2-phenylcyclopropyl)carbamoyl)-pyrrolidine-1-carbonyl)phenoxy)acetate], the EC50 [2, 10] is reported as 40 nM and the EC50 [3, 11] is reported as 260 nM.
`CC(C)(C)OC(=O)CCOCCOCCOCCOc1cc(C(=O)N2C[C@@H](C(=O)N[C@H]3C[C@@H]3c3ccccc3)[C@H](C(=O)N[C@H]3C[C@@H]3c3ccccc3)C2)ccc1C(=O)N1C[C@@H](C(=O)N[C@H]2C[C@@H]2c2ccccc2)[C@H](C(=O)N[C@H]2C[C@@H]2c2ccccc2)C1` [Compound 148, tert-Butyl 3-(2-(2-(2-(2,5-Bis((3S,4S)-3,4-bis(((1S,2R)-2-phenyl-cyclopropyl)carbamoyl)-pyrrolidine-1-carbonyl)-phenoxy)ethoxy)ethoxy)-ethoxy)propanoate] was tested, and the EC50 [2, 10] was 190 nM and the EC50 [3, 11] was greater than 5000 nM.
In the case of `CC(C)(C)OC(=O)CCOCCOCCOCCNC(=O)COc1cc(C(=O)N2C[C@@H](C(=O)N[C@H]3C[C@@H]3c3ccccc3)[C@H](C(=O)N[C@H]3C[C@@H]3c3ccccc3)C2)ccc1C(=O)N1C[C@@H](C(=O)N[C@H]2C[C@@H]2c2ccccc2)[C@H](C(=O)N[C@H]2C[C@@H]2c2ccccc2)C1` [Compound 149, tert-Butyl 1-(2,5-Bis((3S,4S)-3,4-bis(((1S,2R)-2-phenylcyclopropyl)carbamoyl)pyrrolidine-1-carbonyl)phenoxy)-2-oxo-6,9,12-trioxa-3-azapentadecan-15-oate], the EC50 [2, 10] is reported as 20 nM and the EC50 [3, 11] is reported as 150 nM.
Work on `CC(C)(C)OC(=O)COCCOCCOCC(=O)Nc1cc(C(=O)N2C[C@@H](C(=O)N[C@H]3C[C@@H]3c3ccccc3)[C@H](C(=O)N[C@H]3C[C@@H]3c3ccccc3)C2)ccc1C(=O)N1C[C@@H](C(=O)N[C@H]2C[C@@H]2c2ccccc2)[C@H](C(=O)N[C@H]2C[C@@H]2c2ccccc2)C1` [Compound 150, tert-Butyl 2-(2-(2-(2-((2,5-Bis((3S,4S)-3,4-bis(((1S,2R)-2-phenylcyclopropyl)carbamoyl)-pyrrolidine-1-carbonyl)phenyl)amino)-2-oxoethoxy)ethoxy)ethoxy)acetate] yielded an EC50 [2, 10] of 15 nM and an EC50 [3, 11] of 130 nM.
Compound `O=C(COc1cc(C(=O)N2C[C@@H](C(=O)N[C@H]3C[C@@H]3c3ccccc3)[C@H](C(=O)N[C@H]3C[C@@H]3c3ccccc3)C2)ccc1C(=O)N1C[C@@H](C(=O)N[C@H]2C[C@@H]2c2ccccc2)[C@H](C(=O)N[C@H]2C[C@@H]2c2ccccc2)C1)NCC(=O)N[C@@H](CO)C(=O)O` [Compound 151, (2-(2,5-Bis((3S,4S)-3,4-bis(((1S,2R)-2-phenylcyclopropyl)carbamoyl)pyrrolidine-1-carbonyl)phenoxy)acetyl)glycyl-L-serine] has an EC50 ([2]; table of functionalized derivatives 147-151, human THP-1 cells, read-out: EC50 (nM) (THP-1)) of 0.24 nM and an EC50 [3, 11] of 270 nM.
